Test results reported in patent US20260077055A1, “COMPOSITIONS OF POLYPLEXES AND SAPONINS” (SAPREME TECHNOLOGIES B.V., priority 2022, published 2026).
Where a SMILES comes first, the peptide text is derived from it. [ ]: non-standard residue; d: D form. Lys(N3) = [N-]=[N+]=NCCCC[C@H](N)C(=O)O

What was measured:
EGFR+ A431 cells = assay: Cell viability (MTS) after polyplex transfection of A431 cells; assay type: cell-based; conditions: for cell killing activity / saporin gene delivery, K16C npSaporin polyplexes: K16C alone up to about 5000 μM of plasmids (printed), SO1861-EMCH = free, co-administered with K16C-polyplexes
Description: Spectrophotometry: Concentrations were determined using either a Thermo Nanodrop 2000 spectrometer or Perkin Elmer Lambda 365 Spectrophotometer. DLS measurements: DLS measurements were performed on a Malvern Nano ZS (Malvern Instruments, U.K.), operating at 633 nm with a 173° scattering angle, at 25 or 37° C. DLS mean diameters were obtained from the intensity particle size distribution provided by Malvern Zetasizer Software. DLS histograms were obtained from the intensity particle size distributions. Zeta-potential: The zeta-potential values of the polyplexes were obtained by laser doppler anemometry (LDA), measuring the mean electrophoretic mobility (Malvern Zetasizer Nano ZS, Malvern Instruments, U.K.). Measurements were performed in 10 mM HEPES pH 7.1, 150 mM NaCl. TEM measurements: TEM measurements were performed on a JEOL JEM-1011 operated at 100 kV electron microscope, equipped with a camera S5 MegaView G2. A drop of a solution of polyplexes (0.1 mg/mL) was settled on a PELCO® TEM carbon type-B film copper grid and allowed to dry at room temperature for 1 h. Infrared Spectroscopy: FT-IR spectra were recorded on a Bruker Vertex 70v, equipped with a RockSolid interferometer, after preparing the samples (1-2 mg) as KBr pellets. Spectra were processed using OPUS 7.8 software (Bruker). NMR Spectroscopy: 1H NMR spectra were recorded on a 11.7 T Bruker DRX-500 spectrometer. Chemical shifts are reported in ppm (o units) downfield from the HOD residual solvent peak (CD3OD). Experiments were recorded acquiring 64-512 scans, with a pre-scan delay (d1) of 12 s, and an acquisition time (aq) of 4 s at 300 K. 13C NMR spectrum was recorder on a 9.39 T Varian Innova 400 spectrometer. MestReNova 14.2 software (Mestrelab Research) was used for spectra processing. Cell culture conditions and treatments: HEK293FT, A431, A2058, Neuro2A, Hepa1-6 and MDA-MB 468 were maintained in 10% FBS-supplemented DMEM medium (PAN-Biotech GmbH, or Lonza Group, Basel, Switzerland)+Pen/Strep at 37° C. with 5% CO2. […] SO1861-EMCH was conjugated into/onto these polyplexes or co-administrated at 966 or 4000 nM to the different cell lines in vitro (as indicated). For this, cells were seeded in a 96 well plate at 5.000-10.000 c/w in 100 μL/well and incubated overnight at 37° C. Before treatment, the mAb-SO1861 and polyplexes were diluted separately in DPBS (PAN-Biotech GmbH) to 10× the required final concentration. The cells received 80 μL/well fresh media, followed by 20 μL/well polyplex solution and 20 μL/well saponin solution. In particular, before K16-polyplex treatments, K16-polyplexes were formulated in 10 mM HEPES, incubated for 30 min at room temperature and then diluted with complete cell culture medium. The complete cell culture medium was exchanged against 100 μL transfection medium. For co-administration of SO1861-EMCH, the transfection medium was supplemented with 2 μg/mL (=966 nM) SO1861-EMCH. Control transfections were performed with Lipofectamine™ 3000 Transfection Reagent (Thermo Fisher Scientific) according to the manufacturer's instruction, using either […] or 100 ng plasmid and with a media change 4-5 hrs after transfection. […] After treatment, the cells were incubated for 72 hr at 37° C. before the cell viability was determined by a MTS-assay performed according to the manufacturer's instruction (CellTiter 96® AQueous One Solution Cell Proliferation Assay, Promega). […]

red blood cells (RBCs) = assay: Haemolysis assay; assay type: cell-based, human; conditions: 2.5-80 μg/mL, 3 h at 37° C.
Description: To get a first estimation of the haemolytic activity of the scaffolds and its potential to induce aggregation of red blood cells, possible disruption of red blood cells was investigated by measuring the release of haemoglobin into the supernatant according to the scheme shown in FIG. 24A. First, the red blood cells (RBCs) were treated with solutions containing PAMAM- or peptide-based scaffolds or polyplexes obtained therewith at different concentrations (2.5-80 μg/mL). The incubation was performed for 3 h at 37° C. RBCs treated with PBS under same conditions were used as a negative control while samples treated with Triton X-100 (10%) were used as a positive control corresponding to conditions of full haemolysis. After centrifugation, the absorbance at 540 nm (OD540) of the supernatants was recorded with a spectrometer. The following equation was used for the calculation of the percentages of haemolysis: […]

[1] = test system: extrinsic part of the coagulation cascade; assay: Prothrombin time in fresh whole blood; conditions: reference 70-130%
Description: (§1) As a next step, the erythrocyte aggregation propensity of the scaffolds was examined under an optical microscope to visualize possible interactions of the scaffolds and polyplexes with RBCs and their surface (FIG. 24C). […] Next, the impact on haemostasis was investigated. […] Consequently, to investigate the impact of the PAMAM- and peptide-based scaffolds on the patient's blood coagulation, these two parameters were measured in fresh whole blood after incubation of nanoparticles at different concentrations (0 nM-5 μM).

RBCs = assay: Erythrocyte aggregation under optical microscope; conditions: up to 80 μg/mL
Description: as §1

intrinsic pathway = assay: Activated partial thromboplastin time in fresh whole blood; conditions: 0.1 μM; reference 26-40 s
Description: as §1

Row | Molecule | cell killing activity / saporin gene delivery, K16C npSaporin polyplexes (EGFR+ A431 cells) | cell killing activity of K16C npSaporin polyplex (EGFR+ A431 cells; up to about 1000 pM of plasmid, absence of free saponin or targeted saponin, N/P ratio 10) | haemolytic activity (red blood cells (RBCs)) | prothrombin time (PT) ([1]; 0.1 μM) [%] | prothrombin time (PT) ([1]; 0.5 μM) [%] | prothrombin time (PT) ([1]; 1 μM) [%] | prothrombin time (PT) ([1]; 5 μM) [%] | erythrocyte aggregation (RBCs) | partial thromboplastin time (PTT) (intrinsic pathway) [s]
1 | K16G4CGGYK (N3)-SO18610.25 [K16C-(SO1861)0.25 eq] | the most efficient in saporin gene delivery into the cytoplasm |  |  |  |  |  |  |  | 
2 | [N-]=[N+]=NCCCC[C@H](NC(=O)[C@H](Cc1ccc(O)cc1)NC(=O)CNC(=O)CNC(=O)[C@H](CS)NC(=O)CNC(=O)CNC(=O)CNC(=O)CNC(=O)[C@H](CCCCN)NC(=O)[C@H](CCCCN)NC(=O)[C@H](CCCCN)NC(=O)[C@H](CCCCN)NC(=O)[C@H](CCCCN)NC(=O)[C@H](CCCCN)NC(=O)[C@H](CCCCN)NC(=O)[C@H](CCCCN)NC(=O)[C@H](CCCCN)NC(=O)[C@H](CCCCN)NC(=O)[C@H](CCCCN)NC(=O)[C@H](CCCCN)NC(=O)[C@H](CCCCN)NC(=O)[C@H](CCCCN)NC(=O)[C@H](CCCCN)NC(=O)[C@@H](N)CCCCN)C(N)=O [K16C, K16G4CGGYK (N3)] (H-KKKKKKKKKKKKKKKKGGGGCGGY[Lys(N3)]-NH2) | practically no cell killing activity | practically no enhanced cell killing activity | surprisingly low haemolysis degree | 100 | 82 | 61 | 33.5 | did not cause any RBC aggregation | 38.5
